Reference: patent EP0726263A2, “Herbicidal (1,3,4)oxadiazoles and thiadiazoles” (American Cyanamid Company, priority 1995, dated 1996)

Experiments:
Format in all cases: in vivo
[1] = test system: Veronica persica; experiment: Herbicidal activity, postemergence test; conditions: post; sprayed onto seedling plants, 800 g of active material per hectare; evaluated 2 weeks after treatment
Method: (§1) To evaluate their herbicidal activity, compounds according to the invention are tested using a representative range of plants: TRZAW Triticum aestivum HORVW Hordeum vulgare ZEAMX Zea mays GOSHI Gossypium hirsutum HELAN Helianthus annuus GLYMA Glycine max ALOMY Alopecurus myosuroides SETVI Setaria viridis ECHCG Echinochloa crus-galli GALAP Galium aparine STEME Stellaria media VERPE Veronica persica VIOAR Viola arvensis IPOHE Ipomoea hederacea LAMPU Lamium purpureum PAPRH Papaver rhoeas MATIN Matricaria inodora AMARE Amaranthus retroflexus ABUTH Abutilon theophrasti AMBEL Ambrosia artemisifolia CHEAL Chenopodium album
(§2) The tests fall into two categories, preemergence and postemergence. The preemergence tests involve spraying a liquid formulation of the compound onto the soil in which the seeds have recently been sown. The postemergence tests involve spraying a liquid formulation of the compound onto seedling plants.
(§3) The soil used in the tests is a prepared horticultural loam.
(§4) The formulations used in the tests are prepared from solutions of the test compounds in acetone containing 0.4% by weight of an alkylphenol/ethylene oxide condensate available under the trade mark TRITON X-155. These acetone solutions are diluted with water and the resulting formulations applied at dosage levels corresponding to 800 g of active material per hectare in a volume equivalent to 900 litres per hectare.
(§5) In the preemergence tests untreated sown soil and in the postemergence tests untreated soil bearing seedling plants are used as controls.
(§6) Results of herbicide evaluation are expressed on a rating scale (0-9). The scale is based upon a visual observation of plant stand, vigor, malformation, size, chlorosis, and general plant appearance as compared to a control. Preemergence and postemergence treatments are evaluated at 3 and 2 weeks after treatment, respectively.

[2] = test system: Stellaria media; experiment: Herbicidal activity, postemergence test; conditions: post; sprayed onto seedling plants, 800 g of active material per hectare; evaluated 2 weeks after treatment
Method: as §1, §2, §3, §4, §5, §6

[3] = test system: Papaver rhoeas; experiment: Herbicidal activity, postemergence test; conditions: post; sprayed onto seedling plants, 800 g of active material per hectare; evaluated 2 weeks after treatment
Method: as §1, §2, §3, §4, §5, §6

[4] = test system: Triticum aestivum; experiment: Herbicidal activity, postemergence test; conditions: post; sprayed onto seedling plants, 800 g of active material per hectare; evaluated 2 weeks after treatment
Method: as §1, §2, §3, §4, §5, §6

[5] = test system: Glycine max; experiment: Herbicidal activity, postemergence test; conditions: post; sprayed onto seedling plants, 800 g of active material per hectare; evaluated 2 weeks after treatment
Method: as §1, §2, §3, §4, §5, §6

[6] = test system: Ipomoea hederacea; experiment: Herbicidal activity, postemergence test; conditions: post; sprayed onto seedling plants, 800 g of active material per hectare; evaluated 2 weeks after treatment
Method: as §1, §2, §3, §4, §5, §6

[7] = test system: Setaria viridis; experiment: Herbicidal activity, postemergence test; conditions: post; sprayed onto seedling plants, 800 g of active material per hectare; evaluated 2 weeks after treatment
Method: as §1, §2, §3, §4, §5, §6

[8] = test system: Gossypium hirsutum; experiment: Herbicidal activity, postemergence test; conditions: post; sprayed onto seedling plants, 800 g of active material per hectare; evaluated 2 weeks after treatment
Method: as §1, §2, §3, §4, §5, §6

[9] = test system: Ambrosia artemisifolia; experiment: Herbicidal activity, postemergence test; conditions: post; sprayed onto seedling plants, 800 g of active material per hectare; evaluated 2 weeks after treatment
Method: as §1, §2, §3, §4, §5, §6

[10] = test system: Amaranthus retroflexus; experiment: Herbicidal activity, postemergence test; conditions: post; sprayed onto seedling plants, 800 g of active material per hectare; evaluated 2 weeks after treatment
Method: as §1, §2, §3, §4, §5, §6

[11] = test system: Chenopodium album; experiment: Herbicidal activity, postemergence test; conditions: post; sprayed onto seedling plants, 800 g of active material per hectare; evaluated 2 weeks after treatment
Method: as §1, §2, §3, §4, §5, §6

[12] = test system: Galium aparine; experiment: Herbicidal activity, postemergence test; conditions: post; sprayed onto seedling plants, 800 g of active material per hectare; evaluated 2 weeks after treatment
Method: as §1, §2, §3, §4, §5, §6

[13] = test system: Alopecurus myosuroides; experiment: Herbicidal activity, postemergence test; conditions: post; sprayed onto seedling plants, 800 g of active material per hectare; evaluated 2 weeks after treatment
Method: as §1, §2, §3, §4, §5, §6

[14] = test system: Lamium purpureum; experiment: Herbicidal activity, postemergence test; conditions: post; sprayed onto seedling plants, 800 g of active material per hectare; evaluated 2 weeks after treatment
Method: as §1, §2, §3, §4, §5, §6

[15] = test system: Matricaria inodora; experiment: Herbicidal activity, postemergence test; conditions: post; sprayed onto seedling plants, 800 g of active material per hectare; evaluated 2 weeks after treatment
Method: as §1, §2, §3, §4, §5, §6

[16] = test system: Zea mays; experiment: Herbicidal activity, postemergence test; conditions: post; sprayed onto seedling plants, 800 g of active material per hectare; evaluated 2 weeks after treatment
Method: as §1, §2, §3, §4, §5, §6

[17] = test system: Hordeum vulgare; experiment: Herbicidal activity, postemergence test; conditions: post; sprayed onto seedling plants, 800 g of active material per hectare; evaluated 2 weeks after treatment
Method: as §1, §2, §3, §4, §5, §6

[18] = test system: Abutilon theophrasti; experiment: Herbicidal activity, postemergence test; conditions: post; sprayed onto seedling plants, 800 g of active material per hectare; evaluated 2 weeks after treatment
Method: as §1, §2, §3, §4, §5, §6

[19] = test system: Veronica persica; experiment: Herbicidal activity, preemergence test; conditions: pre; sprayed onto soil, 800 g of active material per hectare; evaluated 3 weeks after treatment
Method: as §1, §2, §3, §4, §5, §6

[20] = test system: Stellaria media; experiment: Herbicidal activity, preemergence test; conditions: pre; sprayed onto soil, 800 g of active material per hectare; evaluated 3 weeks after treatment
Method: as §1, §2, §3, §4, §5, §6

[21] = test system: Papaver rhoeas; experiment: Herbicidal activity, preemergence test; conditions: pre; sprayed onto soil, 800 g of active material per hectare; evaluated 3 weeks after treatment
Method: as §1, §2, §3, §4, §5, §6

[22] = test system: Triticum aestivum; experiment: Herbicidal activity, preemergence test; conditions: pre; sprayed onto soil, 800 g of active material per hectare; evaluated 3 weeks after treatment
Method: as §1, §2, §3, §4, §5, §6

[23] = test system: Glycine max; experiment: Herbicidal activity, preemergence test; conditions: pre; sprayed onto soil, 800 g of active material per hectare; evaluated 3 weeks after treatment
Method: as §1, §2, §3, §4, §5, §6

[24] = test system: Ipomoea hederacea; experiment: Herbicidal activity, preemergence test; conditions: pre; sprayed onto soil, 800 g of active material per hectare; evaluated 3 weeks after treatment
Method: as §1, §2, §3, §4, §5, §6

[25] = test system: Setaria viridis; experiment: Herbicidal activity, preemergence test; conditions: pre; sprayed onto soil, 800 g of active material per hectare; evaluated 3 weeks after treatment
Method: as §1, §2, §3, §4, §5, §6

[26] = test system: Gossypium hirsutum; experiment: Herbicidal activity, preemergence test; conditions: pre; sprayed onto soil, 800 g of active material per hectare; evaluated 3 weeks after treatment
Method: as §1, §2, §3, §4, §5, §6

[27] = test system: Ambrosia artemisifolia; experiment: Herbicidal activity, preemergence test; conditions: pre; sprayed onto soil, 800 g of active material per hectare; evaluated 3 weeks after treatment
Method: as §1, §2, §3, §4, §5, §6

[28] = test system: Amaranthus retroflexus; experiment: Herbicidal activity, preemergence test; conditions: pre; sprayed onto soil, 800 g of active material per hectare; evaluated 3 weeks after treatment
Method: as §1, §2, §3, §4, §5, §6

[29] = test system: Chenopodium album; experiment: Herbicidal activity, preemergence test; conditions: pre; sprayed onto soil, 800 g of active material per hectare; evaluated 3 weeks after treatment
Method: as §1, §2, §3, §4, §5, §6

[30] = test system: Galium aparine; experiment: Herbicidal activity, preemergence test; conditions: pre; sprayed onto soil, 800 g of active material per hectare; evaluated 3 weeks after treatment
Method: as §1, §2, §3, §4, §5, §6

[31] = test system: Alopecurus myosuroides; experiment: Herbicidal activity, preemergence test; conditions: pre; sprayed onto soil, 800 g of active material per hectare; evaluated 3 weeks after treatment
Method: as §1, §2, §3, §4, §5, §6

[32] = test system: Lamium purpureum; experiment: Herbicidal activity, preemergence test; conditions: pre; sprayed onto soil, 800 g of active material per hectare; evaluated 3 weeks after treatment
Method: as §1, §2, §3, §4, §5, §6

[33] = test system: Matricaria inodora; experiment: Herbicidal activity, preemergence test; conditions: pre; sprayed onto soil, 800 g of active material per hectare; evaluated 3 weeks after treatment
Method: as §1, §2, §3, §4, §5, §6

[34] = test system: Zea mays; experiment: Herbicidal activity, preemergence test; conditions: pre; sprayed onto soil, 800 g of active material per hectare; evaluated 3 weeks after treatment
Method: as §1, §2, §3, §4, §5, §6

[35] = test system: Hordeum vulgare; experiment: Herbicidal activity, preemergence test; conditions: pre; sprayed onto soil, 800 g of active material per hectare; evaluated 3 weeks after treatment
Method: as §1, §2, §3, §4, §5, §6

[36] = test system: Abutilon theophrasti; experiment: Herbicidal activity, preemergence test; conditions: pre; sprayed onto soil, 800 g of active material per hectare; evaluated 3 weeks after treatment
Method: as §1, §2, §3, §4, §5, §6

## C[C@H](NC(=O)c1nnc(-c2c(Cl)cccc2Cl)o1)c1ccccc1 [Example 25]
[1]
  VERPE control rating (0-9): 0 (no effect)
[2]
  STEME control rating (0-9): 0 (no effect)
[3]
  PAPRH control rating (0-9): 2 (slight effect)
[4]
  TRZAW control rating (0-9): 0 (no effect)
[5]
  GLXMA control rating (0-9): 1 (trace effect)
[6]
  IPOHE control rating (0-9): 1 (trace effect)
[7]
  SETVI control rating (0-9): 0 (no effect)
[8]
  GOSHI control rating (0-9): 0 (no effect)
[9]
  AMBEL control rating (0-9): 0 (no effect)
[10]
  AMARE control rating (0-9): 5 (definite injury)
[11]
  CHEAL control rating (0-9): 5 (definite injury)
[12]
  GALAP control rating (0-9): 0 (no effect)
[13]
  ALOMY control rating (0-9): 0 (no effect)
[14]
  LAMPU control rating (0-9): 1 (trace effect)
[15]
  MATIN control rating (0-9): 0 (no effect)
[16]
  ZEAMX control rating (0-9): 0 (no effect)
[17]
  HORVW control rating (0-9): 0 (no effect)
[18]
  ABUTH control rating (0-9): 1 (trace effect)
[19]
  VERPE control rating (0-9): 0 (no effect)
[20]
  STEME control rating (0-9): 0 (no effect)
[21]
  PAPRH control rating (0-9): 3 (moderate effect)
[22]
  TRZAW control rating (0-9): 0 (no effect)
[23]
  GLXMA control rating (0-9): 0 (no effect)
[24]
  IPOHE control rating (0-9): 0 (no effect)
[25]
  SETVI control rating (0-9): 0 (no effect)
[26]
  GOSHI control rating (0-9): 0 (no effect)
[27]
  AMBEL control rating (0-9): 0 (no effect)
[28]
  AMARE control rating (0-9): 3 (moderate effect)
[29]
  CHEAL control rating (0-9): 0 (no effect)
[30]
  GALAP control rating (0-9): 0 (no effect)
[31]
  ALOMY control rating (0-9): 0 (no effect)
[32]
  LAMPU control rating (0-9): 0 (no effect)
[33]
  MATIN control rating (0-9): 0 (no effect)
[34]
  ZEAMX control rating (0-9): 0 (no effect)
[35]
  HORVW control rating (0-9): 0 (no effect)
[36]
  ABUTH control rating (0-9): 0 (no effect)
